Source: ChEMBL document CHEMBL3085632, “Subcellular localization of proflavine derivative and induction of oxidative stress--in vitro studies” (Bioorg Med Chem, 2013)
The source made the active and inactive calls. The calls are words filed in the database; no cut-off is given here.

Legend:
[1] = test system: L1210; assay: Induction of apoptosis in mouse L1210 cells assessed as DNA ladder formation at 10 to 15 uM after 8 hrs by agarose gel electrophoresis; type: functional, cell-based
[2] = Selectivity ratio of IC50 for mouse NIH/3T3 cells to IC50 for mouse L1210 cells; type: ADME, cell-based; conditions: NIH/3T3 cells versus L1210 cells, read-out: Ratio IC50
[3] = test system: L1210; assay: Cytotoxicity against mouse L1210 cells assessed as cell viability at 50 uM after 24 hrs by MTT assay in presence of vitamin E; type: functional; conditions: L1210, 24 h, read-out: Activity
[4] = test system: L1210; assay: Induction of intracellular ROS production in mouse L1210 cells at 5 uM after 6 hrs by Dihydroethidium staining-based fluorescence assay in presence of vitamin E relative to control; type: functional, cell-based
[5] = test system: L1210; assay: Cytotoxicity against mouse L1210 cells assessed as decrease in intracellular ATP level at 10 uM after 6 hrs by luminometric assay; type: functional; design: scale not given: the % may be the effect or the level left
[6] = test system: L1210; assay: Cell cycle arrest in mouse L1210 cells assessed as accumulation at S-phase at 10 uM after 5 hrs by propidium iodide staining-based flow cytometric analysis relative to control; type: functional
[7] = test system: L1210; assay: Induction of intracellular ROS production in mouse L1210 cells at 5 uM after 6 hrs by Dihydroethidium staining-based fluorescence assay in absence of vitamin E relative to control; type: functional
[8] = Drug uptake in nucleus of mouse L1210 cells at 5 uM after 1 hr by propidium iodide staining-based confocal microscopic analysis; type: ADME, cell-based; conditions: l1210, 1 h
[9] = test system: L1210; assay: Cell cycle arrest in mouse L1210 cells assessed as accumulation at sub-G0 phase at 10 uM after 5 hrs by propidium iodide staining-based flow cytometric analysis relative to control; type: functional
[10] = Drug uptake in nucleus of mouse L1210 cells by Hoechst-33342 staining-based fluorescence microscopic analysis; type: ADME, cell-based
[11] = Drug uptake in lysosomes of mouse L1210 cells at 4 uM after 30 mins by MDC staining-based flow cytometric analysis; type: ADME, cell-based, Lysosome; conditions: l1210, 0.5 h
[12] = Drug uptake in mitochondria of mouse L1210 cells at 4 uM after 0.5 to 24 hrs by MitoRed staining-based flow cytometric analysis; type: ADME; conditions: l1210, 4 µM
[13] = test system: L1210; assay: Cytotoxicity against mouse L1210 cells assessed as cell viability at 5 to 20 uM after 24 hrs by MTT assay in presence of vitamin E; type: functional, cell-based
[14] = test system: NIH3T3; assay: Cytotoxicity against mouse NIH/3T3 cells assessed as cell viability after 72 hrs by MTT assay; type: cell-based; conditions: NIH3T3, 72 h
[15] = test system: L1210; assay: Induction of apoptosis in mouse L1210 cells assessed as nucleosomal DNA fragmentation at 10 to 15 uM after 4 hrs by agarose gel electrophoresis; type: functional, cell-based
[16] = test system: L1210; assay: Cytotoxicity against mouse L1210 cells assessed as intracellular ATP level at 5 to 10 uM after 6 hrs by luminometric assay in presence of vitamin E; type: functional, cell-based
[17] = Selectivity ratio of IC50 for mouse NIH/3T3 cells to IC50 for human HL60 cells; type: ADME, cell-based, HL-60; conditions: NIH/3T3 cells versus HL60 cells, read-out: Ratio IC50

For `CCCCCCN1C(=O)CN/C1=N\c1ccc2cc3ccc(/N=C4\NCC(=O)N4CCCCCC)cc3nc2c1.Cl`, the Activity [1] was “Active”, the selectivity ratio [2] was 4 and the viability at 50 µM [3] was 80%. The Activity [4] was “inactive”, the Activity [5] was 50% and the Activity [6] was “Active”. For the same compound, the “fold change (FC)” value [7] was 4, the Drug uptake [8] was “Not Active” and the Activity [9] was 17.7%. For the same compound, the Drug uptake [10] was “Not Active”, the Drug uptake [11] was “Not Active” and the Drug uptake [12] was “Active”. For the same compound, the Activity [13] was “Active”, the IC50 [14] was 18.6 µM and the Activity [15] was “inactive”. For the same compound, the Activity [16] was “inactive” and the selectivity ratio [17] was 4.
